Values quoted from earlier work in patent publication US20100316580A1, “ORAL CARE PRODUCT AND METHODS OF USE THEREOF” (Colgate-Palmolive Company, priority 2008, published 2010).

SMILES: Oc1cc(Cl)ccc1Oc1ccc(Cl)cc1Cl [triclosan, 5-chloro-2-(2,4-dichlorophenoxyphenol]
- solubility in water: only slightly soluble
